Like-named read-outs stand apart in the source and are kept apart here. Blank lines part the entries; values can stand above or below the compound they belong to.
Legend:
[1] = Solubility of salts in water (HPLC); assay type: physicochemical
Procedure: The formulator can determine the solubility of the pharmaceutically acceptable salts of the disclosed inhibitors by any method desirable. The following is a non-limiting example of a procedure for evaluating the solubility of a salt of a disclosed inhibitor. A suspension of tert-butyl-{[1-(4-chlorobenzyl)-3-hydroxy-2-oxo-1,2-dihydropyridin-4-yl]methyl}-piperazine-1-carboxylate methanesulfonate (26.6 mg) in distilled deionized water (3.0 mL) is sonicated for 20 min with water bath temperature under 25° C. The suspension is filtered to remove any insoluble salt. The clear filtrate solution (200 μL) is diluted with distilled deionized water (800 μL) and subjected to HPLC analysis. The following are results for the pharmaceutically acceptable salts outlined in Table VII above.

[2] = test system: phosphoglycerate kinase (PGK) expression; experiment: PGK expression in murine embryonic fibroblasts; assay type: cell-based; details: wild type murine embryonic fibroblasts; 1 μM, 10 μM (FIG. 12)
Procedure: FIG. 11 depicts the up regulation of phosphoglycerate kinase (PGK) expression in wild type murine embryonic fibroblasts as a result of treatment with compound a compound disclosed in Table VIII at dosages of 1 μM (E), 10 μM (F), and 50 μM (G) vs. wild type control (H) and the lack of up regulation of PGK expression in HIF-1 knock out cells as a result of treatment with a compound disclosed in Table VIII at dosages of 1 μM (A), 10 μM (B), and 50 μM (C) and HIF-1 knock out control (D). Both cell types were treated for 7 hours.

SMILES: CC(C)(C)OC(=O)N1CCN(Cc2ccn(Cc3ccc(Cl)cc3)c(=O)c2O)CC1 [Compound A41, tert-butyl 4-{[1-(4-chlorobenzyl)-3-hydroxy-2-oxo-1,2-dihydropyridin-4-yl]methyl}piperazine-1-carboxylate]
Solubility ([1]; distilled deionized water, sonicated 20 min, under 25° C., HPLC, listed as Free base): ~0.001 mg/mL

up regulation of phosphoglycerate kinase (PGK) expression [2]: up regulation
SMILES: O=c1c(O)cccn1Cc1cccc(Cl)c1 [Compound F2, 1-(3-chlorobenzyl)-3-hydroxypyridin-2(1H)-one]

SMILES: CC(C)(C)OC(=O)N1CCN(Cc2ccn(Cc3ccc(Cl)cc3)c(=O)c2O)CC1 [hydrogensulfonate, tert-butyl-{[1-(4-chlorobenzyl)-3-hydroxy-2-oxo-1,2-dihydropyridin-4-yl]methyl}-piperazine-1-carboxylate]
Solubility [1]: 13.2 mg/mL

Reference: US9278930B2, “Methods for increasing the stabilization of hypoxia inducible factor-α” (Aerpio Therapeutics Inc., priority 2009, dated 2016)
